Experimental data: EP0366226A1, “Stabilized thiocarbonate solutions and the use thereof for controlling soil pests” (UNION OIL COMPANY OF CALIFORNIA, priority 1988, dated 1990)
Structures can show the parent of a compound that is named as a salt.

Assays:
[1] = Accelerated ageing at 84° C.: effect of additives on thiocarbonate half-life; assay type: physicochemical; settings: parentheses = decrease
Protocol: The effect of elemental sulfur additions and the addition of free radical scavengers on the half-life of thiocarbonate solutions was determined by an accelerated adding procedure in which the compositions were stored at 84° C. in order to accelerate decomposition and thereby facilitate data acquisition. Incremental additions of 1.0, 3.0 and 5.0 weight percent elemental sulfur were made, and these corresponds to 0.16, 0.48 and 0.86 equivalents of sulfur per equivalent of ammonium sulfide, respectively. Since the solutions contained 1 equivalent of ammonium sulfide per equivalent of ammonium tetrathiocarbonate (based on the weight percent values for those components given above), the amount of ammonium polysulfide in the solution correspond, nominally, to 0.16, 0.48 and 0.86 equivalents polysulfide per equivalent of thiocarbonate for the 3 sulfur concentrations employed.

[2] = test system: sugar beet cyst nematodes (Heterodera spp.); test: Soil treatment of infested sugar beets; assay type: in vivo; settings: about 94 kilograms per hectare, dissolved in irrigation water
Protocol: Sugar beets, infested with sugar beet cyst nematodes (Heterodera spp.), were treated by application to the soil of about 94 kilograms per hectare of CaCS₄, dissolved in irrigation water.

[3] = Degradation time in sandy loam soil at different moisture (CS2 in air space by gas chromatography); assay type: physicochemical
Protocol: A sandy loam soil was placed in 1-liter glass bottles, fitted with stoppers having fluorocarbon liners and silicone rubber septa, to give a soil depth of about 4 cm. Water was added to the soil, in quantities to obtain 50 and 100 percent soil saturation. Thiocarbonate solution or carbon disulfide was then injected near the bottom of the soil layer, the bottles were promptly sealed, and the air space in the bottles was sampled at intervals with a syringe, for gas chromatographic analysis of CS₂. The results are summarized below, wherein degradation time is the number of hours required to achieve the maximum CS₂ concentration in the air space.

[4] = test system: nitrification of ammoniacal fertilizers in soil; test: Inhibition of nitrification of urea in sandy loam soil plots; settings: 5 weight percent solution at 100 liters per acre after 200 lbs. urea per acre; versus untreated plot
Description: The ability of the described thiocarbonate compounds to inhibit nitrification of ammoniacal fertilizers in soil can be illustrated by applying to two separate plots of sandy loam soil a urea solution in irrigation water at a rate corresponding to 200 lbs. urea per acre with sufficient water to increase the soil water content to at least 50 percent. This application can be followed, on one of the plots treated with the urea solution and within one hour of application of the urea solution, with application of an aqueous solution containing 5 weight percent calcium tetrathiocarbonate applied at a rate of 100 liters per acre in sufficient irrigation water to increase the soil water content to 100 percent of saturation.

[5] = Solvency of aqueous thiocarbonate solutions for urea; assay type: physicochemical
Protocol: Urea was added to a 41.5 percent, by weight, aqueous solution of calcium tetrathiocarbonate until the solubility limit of urea was reached. At room temperature, the solution dissolved 122 percent by weight urea. The resulting solution was 55 percent urea, 18.6 percent calcium tetrathiocarbonate, and 26.3 percent water, by weight. Thus, the solvency of the aqueous solution of calcium tetrathiocarbonate for urea was at least as great as that of water alone. Similarly, a 46 percent solution of potassium tetrathiocarbonate dissolved 100 percent of its own weight of urea. Similar results were obtained with other tri- and tetrathiocarbonates of alkali metal and alkaline earth metals.

Fusarium spp. = test: Petri dish tests in potato dextrose agar and broth; assay type: cell-based; settings: when the broth also contained Trichoderma spp., read-out: solution concentration with which control was obtained
Description: In petri dish tests of CaCS₄ against the fungus Fusarium spp., control with solutions containing less than about 10 grams per liter of the compound, in both potato dextrose agar and potato dextrose broth, was obtained using the solution when the broth also contained another fungus, Trichoderma spp.

[6] = Effect of pH on production of CS2 from thiocarbonates in citrate-phosphate buffers (gas chromatography of air); assay type: physicochemical
Protocol: Pure carbon disulfide was also injected, for comparison. A syringe was used to periodically sample air in the bottle, and the air was analyzed by gas chromotography.

Fusarium oxysporum = test: Fungicidal test, radial growth of mycelia from treated agar blocks; assay type: cell-based
Protocol: (§1) Thiocarbonate solutions were used in a test of their fungicidal properties. Cultures of four plant pathogenic fungi were grown upon potato dextrose agar at room temperature, in diffuse natural lighting. After one week, square blocks having 2 millimeter sides were cut from the edges of actively drawings mycelia spots on the agar.
(§2) The blocks were immersed in sterile deionized water, as a control, or in dilutions of thiocarbonate solutions using the sterile water, in a closed container. Subsequently, the blocks were removed and placed upon agar in clean plates, and mycelia were allowed to grow for one week.
(§3) Radial growth of mycelia colonies was measured for each of the six to eight replicate plates used for a particular fungus, and average colony radius was calculated. Percent control is defined by the following equation: […]
(§4) Concentrations given for solutions used to treat the agar blocks are expressed in grams of thiocarbonate solution per liter of diluted solution.

Phytophthora cinnamomi = test: as above; assay type: cell-based
Protocol: as §1, §2, §3, §4

Sclerotium rolfsii = test: as above; assay type: cell-based
Protocol: as §1, §2, §3, §4

Verticillium dahliae = test: as above; assay type: cell-based
Protocol: as §1, §2, §3, §4

[7] = additive Concentration 0.5 Wt. %
[8] = additive Concentration 1.0 Wt. %
[9] = additive Concentration 2.0 Wt. %
[10] = 1 g/l, listed as CaCS₄ (2.8%CS₂)
[11] = 10 g/l, listed as CaCS₄ (2.8%CS₂)
[12] = 1 g/l, listed as K₂CS₄ (9.43%CS₂)
[13] = 10 g/l, listed as K₂CS₄ (9.43%CS₂)

## O=C1O[C@H]([C@@H](O)CO)C(O)=C1O [Ascorbic Acid]
[1]; [7]
  Increase (Decrease) in Half-Life, %: 0%
[1]; [8]
  Increase (Decrease) in Half-Life, %: 0%
[1]; [9]
  Increase (Decrease) in Half-Life, %: 0%

## S=C(S)SS [CaCS₄, calcium tetrathiocarbonate]
[2]
  counts and viability of nematode larvae in the soil following treatment: remained high, but the larvae were not viable
[3]; Soil Moisture 0 % of Saturation, hours to maximum CS2 concentration in the air space
  Degradation Time: 4 h
[4]
  nitrification of urea in the treated soil: nitrified more slowly
[5]; 41.5 percent by weight aqueous solution, room temperature
  urea dissolved by the solution: 122 percent by weight
Fusarium spp.
  minimal effective concentration: < 10000 µg/mL
[6]; pH 5.2, 125 milligrams of thiocarbonate ion per liter
  Half-life (minutes) for production of carbon disulfide: 1 min
[6]; pH 6.0
  Half-life (minutes) for production of carbon disulfide: 1.8 min
[6]; pH 7.0
  Half-life (minutes) for production of carbon disulfide: 2.7 min
[6]; pH 8.0, CaCS4 values above pH 7 called unreliable
  Half-life (minutes) for production of carbon disulfide: 8.0 min
Fusarium oxysporum; [10]
  Percent Control Fusarium oxysporum: 3%
Fusarium oxysporum; [11]
  Percent Control Fusarium oxysporum: 18%
Fusarium oxysporum; 100 g/l thiocarbonate solution per liter of diluted solution, listed as CaCS₄ (2.8%CS₂)
  Percent Control Fusarium oxysporum: 100%
Phytophthora cinnamomi; [10]
  Percent Control Phytophthora cinnamomi: 56%
Phytophthora cinnamomi; [11]
  Percent Control Phytophthora cinnamomi: 56%
Sclerotium rolfsii; [10]
  Percent Control Sclerotium rolfsii: 46%
Sclerotium rolfsii; [11]
  Percent Control Sclerotium rolfsii: 62%
Verticillium dahliae; [10]
  Percent Control Verticillium dahliae: 13%
Verticillium dahliae; [11]
  Percent Control Verticillium dahliae: 22%

## O=C(O)CC(O)(CC(=O)O)C(=O)O [Citric Acid, Na Salt]
[1]; [7]
  Increase (Decrease) in Half-Life, %: 0%
[1]; [8]
  Increase (Decrease) in Half-Life, %: 0%
[1]; [9]
  Increase (Decrease) in Half-Life, %: 0%

## Oc1ccc(O)cc1 [Hydroquinone]
[1]; [7]
  Increase (Decrease) in Half-Life, %: 0%

## S=C(S)SS [K₂CS₄, potassium tetrathiocarbonate]
[3]; Soil Moisture 50 % of Saturation
  Degradation Time: 5 h
[3]; Soil Moisture 100 % of Saturation
  Degradation Time: 48 h
[5]; 46 percent solution
  urea dissolved by the solution: 100% of its own weight
Fusarium oxysporum; [12]
  Percent Control Fusarium oxysporum: 8%
Fusarium oxysporum; [13]
  Percent Control Fusarium oxysporum: 10%
Fusarium oxysporum; 100 g/l thiocarbonate solution per liter of diluted solution, listed as K₂CS₄ (9.43%CS₂)
  Percent Control Fusarium oxysporum: 76%
Phytophthora cinnamomi; [12]
  Percent Control Phytophthora cinnamomi: 56%
Phytophthora cinnamomi; [13]
  Percent Control Phytophthora cinnamomi: 68%
Sclerotium rolfsii; [12]
  Percent Control Sclerotium rolfsii: 42%
Sclerotium rolfsii; [13]
  Percent Control Sclerotium rolfsii: 8%
Verticillium dahliae; [12]
  Percent Control Verticillium dahliae: 27%
Verticillium dahliae; [13]
  Percent Control Verticillium dahliae: 15%
